Experimental data taken from patent publication US12673975B2, “Cyclic peptide, cell scaffold material, cell separating material, and medium” (FUJIFILM Corporation, priority 2019, dated 2026).
Like-named read-outs stand apart in the source and are kept apart here. Starred links: 1 amine or outer side, 2 acyl side, 3 side chain; linkers in the order of their positions; H or OH if unused. Positions of bridges follow the written chain, without caps; N, C: chain ends. Non-standard residues stand in square brackets, D forms with d. Residues, ends and D or L forms follow the SMILES beside them. Pen = CC(C)(S)[C@H](N)C(=O)O; hCys = N[C@@H](CCS)C(=O)O; Dab = NCC[C@H](N)C(=O)O; Dap = NC[C@H](N)C(=O)O; X1 = O=C(C[*:2])[*:1]; X2 = O=C(C[*:1])[*:2]; βAla = NCCC(=O)O

Legend:
[1] = Evaluation of molecule stability (alkali treatment, residual rate by LC/MS); assay type: physicochemical; details: for Performance evaluation: Stability (residual rate of cyclic peptide after alkali treatment): 500 μM peptide aqueous solution plus equivalent of 1 M sodium hydroxide, 15° C., 3 hours, LC/MS peak area; for Stability (molecule stability, residual rate of the cyclic peptide rank): alkali treatment, residual rate by LC/MS
Procedure, shortened: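 Stability read as percent of summed LC/MS peak area remaining versus untreated peptide (C18, 45 °C, 10 mM ammonium formate pH 3, ESI positive/negative). Treatment: 500 μM peptide in water plus an equivalent of 1 M NaOH, 15 °C for 3 hours.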

human integrin αvβ5 = human integrin αvβ5 (Homo sapiens, UniProt P06756+P18084); experiment: Evaluation of integrin binding property (surface plasmon resonance, Biacore 3000, immobilized cyclic peptide)
Sequence of human integrin αvβ5 (P06756 31-1048): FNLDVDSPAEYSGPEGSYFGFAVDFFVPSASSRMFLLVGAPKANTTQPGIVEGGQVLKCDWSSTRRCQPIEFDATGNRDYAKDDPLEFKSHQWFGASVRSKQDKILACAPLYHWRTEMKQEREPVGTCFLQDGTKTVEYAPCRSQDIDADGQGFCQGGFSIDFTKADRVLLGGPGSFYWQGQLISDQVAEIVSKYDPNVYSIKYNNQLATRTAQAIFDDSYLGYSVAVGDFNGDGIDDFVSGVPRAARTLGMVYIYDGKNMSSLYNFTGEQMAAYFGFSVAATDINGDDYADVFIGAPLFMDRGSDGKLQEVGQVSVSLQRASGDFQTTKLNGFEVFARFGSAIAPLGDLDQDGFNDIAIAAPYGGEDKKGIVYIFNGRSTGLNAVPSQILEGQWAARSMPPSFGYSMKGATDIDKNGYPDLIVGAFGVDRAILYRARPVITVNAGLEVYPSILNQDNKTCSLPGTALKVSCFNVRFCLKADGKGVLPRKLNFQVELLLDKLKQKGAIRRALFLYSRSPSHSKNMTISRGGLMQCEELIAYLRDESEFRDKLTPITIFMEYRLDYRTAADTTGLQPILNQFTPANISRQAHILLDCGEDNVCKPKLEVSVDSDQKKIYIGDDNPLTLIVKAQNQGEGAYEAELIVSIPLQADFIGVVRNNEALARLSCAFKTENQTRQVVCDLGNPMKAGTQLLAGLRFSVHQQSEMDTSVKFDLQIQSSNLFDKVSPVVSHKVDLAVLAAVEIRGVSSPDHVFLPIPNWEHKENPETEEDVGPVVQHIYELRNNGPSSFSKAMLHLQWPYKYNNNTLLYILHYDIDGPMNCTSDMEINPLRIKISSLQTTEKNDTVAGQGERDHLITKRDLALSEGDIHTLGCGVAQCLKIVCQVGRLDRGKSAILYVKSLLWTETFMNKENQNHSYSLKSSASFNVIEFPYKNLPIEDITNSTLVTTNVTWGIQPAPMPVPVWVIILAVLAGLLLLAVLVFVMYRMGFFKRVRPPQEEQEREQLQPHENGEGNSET
Sequence of human integrin αvβ5 (P18084 24-799): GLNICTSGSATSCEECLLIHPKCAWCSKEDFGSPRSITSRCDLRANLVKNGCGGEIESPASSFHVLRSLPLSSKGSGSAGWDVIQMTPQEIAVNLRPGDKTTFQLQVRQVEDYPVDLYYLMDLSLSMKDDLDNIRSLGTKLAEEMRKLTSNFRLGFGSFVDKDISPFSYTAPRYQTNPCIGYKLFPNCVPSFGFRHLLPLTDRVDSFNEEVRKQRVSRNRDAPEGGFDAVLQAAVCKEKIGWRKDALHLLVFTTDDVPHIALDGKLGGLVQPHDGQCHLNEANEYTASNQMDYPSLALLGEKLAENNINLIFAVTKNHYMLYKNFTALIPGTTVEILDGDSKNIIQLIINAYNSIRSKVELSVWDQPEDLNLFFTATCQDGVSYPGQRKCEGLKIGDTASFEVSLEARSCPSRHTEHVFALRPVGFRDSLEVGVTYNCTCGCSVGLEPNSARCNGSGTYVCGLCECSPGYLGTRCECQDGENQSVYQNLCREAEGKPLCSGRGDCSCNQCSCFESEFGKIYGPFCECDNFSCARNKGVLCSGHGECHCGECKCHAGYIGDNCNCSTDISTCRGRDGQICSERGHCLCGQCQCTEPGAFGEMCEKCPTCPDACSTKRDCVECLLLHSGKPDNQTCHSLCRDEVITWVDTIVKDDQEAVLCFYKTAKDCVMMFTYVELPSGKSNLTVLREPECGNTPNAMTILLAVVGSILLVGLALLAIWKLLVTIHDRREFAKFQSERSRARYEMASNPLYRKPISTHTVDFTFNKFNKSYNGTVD
Procedure, shortened: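 Human αvβ5 (30-1,000 nM) flowed for 10 min at 25 °C over immobilized cyclic peptide in 20 mM HEPES, 150 mM NaCl, 5 mM MgCl2, pH 7.4, followed by 30 min running buffer and 0.5 M EDTA regeneration. Dissociation constant from peptide minus unimmobilized channel, scored into standard grades.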

[2] = SPR, 25° C., HEPES buffer with 5 mM magnesium chloride, integrin 30-1,000 nM, read-out: Performance evaluation: Binding activity (dissociation constant between the cyclic peptide and human integrin αvβ5)
[3] = surface plasmon resonance, immobilized cyclic peptide, human integrin αvβ5, read-out: Binding activity (integrin binding property, dissociation constant rank)

Row | Compound | Performance evaluation: Stability (residual rate of cyclic peptide after alkali treatment) [1] | Kd (human integrin αvβ5; [2]) [nM] | Stability (molecule stability, residual rate of the cyclic peptide rank) [1] | molecule stability (in words) ([1]; summary of Table 9 to Table 13) | Kd (human integrin αvβ5; [3]) [nM]
1 | CC[C@H](C)[C@@H]1NC(=O)[C@@H](NC(=O)[C@H](CCCCN)NC(=O)[C@H](CCCCN)NC(=O)[C@@H](N)CCCCN)CCSCC(=O)NCC[C@@H](C(=O)O)NC(=O)[C@H](C)NC(=O)[C@H](Cc2ccccc2)NC(=O)[C@H]([C@@H](C)O)NC(=O)[C@H](CC(=O)O)NC(=O)CNC(=O)[C@H](CCCNC(=N)N)NC(=O)[C@@H]2CCCN2C1=O [Cyclic peptide 62, KKK-(Hcy)-IPRGDTFA(Dab(acetyl))] (H-KKK[hCys]IPRGDTFA[Dab]-OH; linker 4-13 via X2) | A (The residual rate of the cyclic peptide is 70% or more.) | < 50 | – | – | –
2 | N=C(N)NCCC[C@@H]1NC(=O)[C@H](Cc2ccc(O)cc2)NC(=O)[C@H](CC(N)=O)NC(=O)[C@H](CC(=O)O)NC(=O)CNC(=O)[C@H](CCCNC(=N)N)NC(=O)[C@@H]2CCCN2C(=O)[C@H](CCC(=O)O)NC(=O)[C@@H](NC(=O)CCNC(=O)[C@H](CCCCN)NC(=O)[C@H](CCCCN)NC(=O)[C@@H](N)CCCCN)CCSCC(=O)NCC[C@@H](C(N)=O)NC1=O [Cyclic peptide 51, KKKβA-(Hcy)-EPRGDNYR(Dab(acetyl))] (H-KKK[βAla][hCys]EPRGDNYR[Dab]-NH2; linker 5-14 via X2) | A (The residual rate of the cyclic peptide is 70% or more.) | 100 to 200 | – | – | –
3 | C[C@H](NC(=O)[C@H](CCCCN)NC(=O)[C@H](CCCCN)NC(=O)[C@@H](N)CCCCN)C(=O)N[C@H]1CNC(=O)CSC[C@@H](C(=O)O)NC(=O)[C@H](CCCNC(=N)N)NC(=O)[C@H](Cc2ccc(O)cc2)NC(=O)[C@H](CC(N)=O)NC(=O)[C@H](CC(=O)O)NC(=O)CNC(=O)[C@H](CCCNC(=N)N)NC(=O)[C@@H]2CCCN2C(=O)[C@H](CCC(=O)O)NC1=O [Cyclic peptide 166, KKKA(Dap(acetyl))EPRGDNYR(C), reference compound] (H-KKKA[Dap]EPRGDNYRC-OH; linker 5-14 via X1) | – | – | D (The residual rate of the cyclic peptide is less than 30%.) | a practically sufficient molecule stability could be obtained | < 50
4 | C[C@H](NC(=O)[C@@H]1CCNC(=O)CSCC[C@H](NC(=O)[C@H](CCCCN)NC(=O)[C@H](CCCCN)NC(=O)[C@@H](N)CCCCN)C(=O)N[C@@H](CCC(=O)O)C(=O)N2CCC[C@H]2C(=O)N[C@@H](CCCNC(=N)N)C(=O)NCC(=O)N[C@@H](CC(=O)O)C(=O)N[C@@H](CC(N)=O)C(=O)N[C@@H](Cc2ccccc2)C(=O)N[C@@H](CCCNC(=N)N)C(=O)N1)C(=O)O [Cyclic peptide 23, KKK-(Hcy)-EPRGDNFR(Dab(acetyl))A] (H-KKK[hCys]EPRGDNFR[Dab]A-OH; linker 4-13 via X2) | A (The residual rate of the cyclic peptide is 70% or more.) | < 50 | – | – | –
5 | CC(C)[C@@H]1NC(=O)[C@H](CC(=O)O)NC(=O)CNC(=O)[C@H](CCCNC(=N)N)NC(=O)[C@@H]2CCCN2C(=O)[C@H](C(C)C)NC(=O)[C@@H](NC(=O)[C@H](CCCCN)NC(=O)[C@H](CCCCN)NC(=O)[C@@H](N)CCCCN)CCSCC(=O)NCC[C@@H](C(=O)O)NC(=O)[C@H](Cc2ccccc2)NC1=O [Cyclic peptide 66, KKK-(Hcy)-VPRGDVF(Dab(acetyl))] (H-KKK[hCys]VPRGDVF[Dab]-OH; linker 4-12 via X2) | A (The residual rate of the cyclic peptide is 70% or more.) | < 50 | – | – | –
6 | CC[C@H](C)[C@@H]1NC(=O)[C@@H](NC(=O)CNC(=O)[C@H](CCCCN)NC(=O)[C@H](CCCCN)NC(=O)[C@@H](N)CCCCN)CCSCC(=O)NCC[C@@H](C(=O)N[C@@H](C)C(=O)O)NC(=O)[C@H](Cc2ccccc2)NC(=O)[C@H]([C@@H](C)O)NC(=O)[C@H](CC(=O)O)NC(=O)CNC(=O)[C@H](CCCNC(=N)N)NC(=O)[C@@H]2CCCN2C1=O [Cyclic peptide 58, KKKG-(Hcy)-IPRGDTF(Dab(acetyl))A] (H-KKKG[hCys]IPRGDTF[Dab]A-OH; linker 5-13 via X2) | A (The residual rate of the cyclic peptide is 70% or more.) | < 50 | – | – | –
7 | CC[C@H](C)[C@@H]1NC(=O)[C@@H](NC(=O)CNC(=O)[C@H](CCCCN)NC(=O)[C@H](CCCCN)NC(=O)[C@@H](N)CCCCN)C(C)(C)SCC(=O)NCC[C@@H](C(=O)N[C@@H](C)C(=O)O)NC(=O)[C@H](CCCNC(=N)N)NC(=O)[C@H](Cc2ccccc2)NC(=O)[C@H]([C@@H](C)O)NC(=O)[C@H](CC(=O)O)NC(=O)CNC(=O)[C@H](CCCNC(=N)N)NC(=O)[C@@H]2CCCN2C1=O [Cyclic peptide 129, KKKG-(Pen)-IPRGDTFR(Dab(acetyl))A] (H-KKKG[Pen]IPRGDTFR[Dab]A-OH; linker 5-14 via X2) | – | – | A (The residual rate of the cyclic peptide is 70% or more.) | – | 50 to 100
8 | CC(C)[C@@H]1NC(=O)[C@@H](NC(=O)[C@H](CCCCN)NC(=O)[C@H](CCCCN)NC(=O)[C@@H](N)CCCCN)CCSCC(=O)NCC[C@@H](C(=O)N[C@@H](C)C(=O)O)NC(=O)[C@H](C)NC(=O)[C@H](Cc2ccccc2)NC(=O)[C@H]([C@@H](C)O)NC(=O)[C@H](CC(=O)O)NC(=O)CNC(=O)[C@H](CCCNC(=N)N)NC(=O)[C@@H]2CCCN2C1=O [Cyclic peptide 165, KKK-(Hcy)-VPRGDTFA(Dab(acetyl))A] (H-KKK[hCys]VPRGDTFA[Dab]A-OH; linker 4-13 via X2) | – | – | A (The residual rate of the cyclic peptide is 70% or more.) | – | < 50
9 | C[C@H](NC(=O)[C@H](CCCCN)NC(=O)[C@H](CCCCN)NC(=O)[C@@H](N)CCCCN)C(=O)N[C@H]1CNC(=O)CSCC[C@@H](C(=O)N[C@@H](CC(=O)O)C(=O)O)NC(=O)[C@H](CCCNC(=N)N)NC(=O)[C@H](Cc2ccc(O)cc2)NC(=O)[C@H](CC(N)=O)NC(=O)[C@H](CC(=O)O)NC(=O)CNC(=O)[C@H](CCCNC(=N)N)NC(=O)[C@@H]2CCCN2C(=O)[C@H](CCC(=O)O)NC1=O [Cyclic peptide 48, KKKA(Dap(acetyl))EPRGDNYR-(Hcy)-D] (H-KKKA[Dap]EPRGDNYR[hCys]D-OH; linker 5-14 via X1) | B (The residual rate of the cyclic peptide is 50% or more and less than 70%.) | < 50 | – | – | –
10 | CC[C@H](C)[C@@H]1NC(=O)[C@H](C)NC(=O)[C@@H](NC(=O)[C@H](CCCCN)NC(=O)[C@H](CCCCN)NC(=O)[C@@H](N)CCCCN)CCSCC(=O)NCC[C@@H](C(=O)N[C@@H](C)C(=O)O)NC(=O)[C@H](C)NC(=O)[C@H](CCCNC(=N)N)NC(=O)[C@H](Cc2ccccc2)NC(=O)[C@H](CC(N)=O)NC(=O)[C@H](CC(=O)O)NC(=O)CNC(=O)[C@H](CCCNC(=N)N)NC(=O)[C@@H]2CCCN2C1=O [Cyclic peptide 17, KKK-(Hcy)-AIPRGDNFRA(Dab(acetyl))A] (H-KKK[hCys]AIPRGDNFRA[Dab]A-OH; linker 4-15 via X2) | A (The residual rate of the cyclic peptide is 70% or more.) | 50 to 100 | – | – | –
11 | CC[C@H](C)[C@@H]1NC(=O)[C@@H](NC(=O)[C@H](C)N)CCSCC(=O)NCC[C@@H](C(=O)N[C@@H](C)C(=O)O)NC(=O)[C@H](C)NC(=O)[C@H](Cc2ccccc2)NC(=O)[C@H](CO)NC(=O)[C@H](CC(=O)O)NC(=O)CNC(=O)[C@H](CCCNC(=N)N)NC(=O)[C@@H]2CCCN2C1=O [Cyclic peptide 126, A-(Hcy)-IPRGDSFA(Dab(acetyl))A] (H-A[hCys]IPRGDSFA[Dab]A-OH; linker 2-11 via X2) | – | – | A (The residual rate of the cyclic peptide is 70% or more.) | – | < 50
12 | CC(C)[C@@H]1NC(=O)[C@@H](NC(=O)[C@H](C)N)CCSCC(=O)NCC[C@@H](C(=O)N[C@@H](C)C(=O)N[C@@H](CCCCN)C(=O)N[C@@H](CCCCN)C(=O)N[C@@H](CCCCN)C(=O)O)NC(=O)[C@H](C)NC(=O)[C@H](Cc2ccccc2)NC(=O)[C@H]([C@@H](C)O)NC(=O)[C@H](CC(=O)O)NC(=O)CNC(=O)[C@H](CCCNC(=N)N)NC(=O)[C@@H]2CCCN2C1=O [Cyclic peptide 109, A-(Hcy)-VPRGDTFA(Dab(acetyl))AKKK] (H-A[hCys]VPRGDTFA[Dab]AKKK-OH; linker 2-11 via X2) | – | – | A (The residual rate of the cyclic peptide is 70% or more.) | – | < 50
13 | CC[C@H](C)[C@@H]1NC(=O)[C@@H](NC(=O)[C@H](CCCCN)NC(=O)[C@H](CCCCN)NC(=O)[C@@H](N)CCCCN)CCSCC(=O)NCC[C@@H](C(=O)N[C@@H](C)C(=O)O)NC(=O)[C@H](C)NC(=O)[C@H](Cc2ccccc2)NC(=O)[C@H](CO)NC(=O)[C@H](CC(=O)O)NC(=O)CNC(=O)[C@H](CCCNC(=N)N)NC(=O)[C@@H]2CCCN2C1=O [Cyclic peptide 163, KKK-(Hcy)-IPRGDSFA(Dab(acetyl))A] (H-KKK[hCys]IPRGDSFA[Dab]A-OH; linker 4-13 via X2) | – | – | A (The residual rate of the cyclic peptide is 70% or more.) | – | < 50
